This data set is described as follows: Molar enthalpy of transition or fusion.

Numbers after ± are expanded uncertainties.

On to `Clc1ccc(Cl)cc1` [1,4-dichlorobenzene], for which the “Molar enthalpy of transition or fusion” value runs as follows: (Crystal 1) 17.91 ± 0.064 kJ/mol; (Crystal 2) 0.181 ± 0.051 kJ/mol; (Crystal 3) 1.24 ± 0.051 kJ/mol. Turning to `Brc1cc(Br)cc(Br)c1` [1,3,5-tribromobenzene], the “Molar enthalpy of transition or fusion” value (Crystal) is 21.72 ± 0.051 kJ/mol. The same measure, in the same setting: to `Clc1cc(Cl)cc(Cl)c1` [1,3,5-trichlorobenzene] belongs 17.56 ± 0.09 kJ/mol. Still for that read-out and setting: to `Brc1ccc(Br)cc1` [1,4-dibromobenzene] belongs 20.39 ± 0.066 kJ/mol.

The values above are taken from the NIST ThermoML archive (doi:10.1021/je049762q).
